The values below come from patent US20250025473A1 (priority 2021, published 2025).

The term pIC50 denotes −log10 of the IC50, conventionally taken in molar units. Higher therefore signals a low IC50. As a reminder, the IC50 is the concentration at which inhibition is half-maximal. Read a high IC50 as weaker potency in that assay.

One data set concerns MDCK-MDR1 cells. Particulars: 5 μM.
In data set [1] the target is T1, panel of 393 kinases (Homo sapiens, UniProt Q9BQI3).
T1 construct: purchased Reaction Biology Corporation
Description: biochemical.

Data set [2] concerns the target T2, panel of 393 kinases (Homo sapiens, UniProt Q15118).
T2 construct: purchased Reaction Biology Corporation
Description: biochemical. Particulars: kinase PDK1/PDHK1; control compound.

For data set [3], the target named is T3, panel of 393 kinases (Homo sapiens, UniProt Q15119).
T3 construct: purchased Reaction Biology Corporation
As to the kind of experiment: biochemical. Particulars: kinase PDK2/PDHK2; control compound.

Data set [4] has as its target T4, panel of 393 kinases (Homo sapiens, UniProt Q15120).
T4 construct: purchased Reaction Biology Corporation
As to the kind of experiment: biochemical. To be noted: kinase PDK3/PDHK3; control compound.

Data set [5] addresses T5, panel of 393 kinases (Homo sapiens, UniProt Q16654).
T5 construct: purchased Reaction Biology Corporation
As to the kind of experiment: biochemical. Particulars: kinase PDK4/PDHK4; control compound.

Data set [6] deals with T6, panel of 393 kinases (Homo sapiens, UniProt Q96QT4).
T6 construct: purchased Reaction Biology Corporation
Description: biochemical. Particulars: kinase TRPM7/CHAK1; control compound.

Data set [7] in a line: Parallel artificial membrane permeability assay (PAMPA). The class given is in vitro ADME. Background: The PAMPA barrier holds no transporters, so it reflects passive diffusion.
The next data set has as its system HaCat cells. Description: Cytotoxicity/viability, confluent HaCat cells. The class given is cell-based, human. To be noted: 10 μM. The method, then:
Results are presented as mean±SEM odu as a percentage of the DMSO control (n=2 independent experiments each conducted in duplicate for C and 1 experiment conducted in duplicate for D). Results in B-D were compared by ANOVA, *p<0.05, **p<0.01, ***p<0.001, ****p<0.0001).
Cell proliferation and viability were determined using the Cell Titer 96® Aqueous One Solution and optical density was determined using a SpectraMax® M5e Molecular Devices multidetection microplate reader. […] The cells were then fixed and stained for activated caspases (red) and SYTOX Green (for integrity of plasma membrane) by Image-iT™ LIVE red Poly Caspase Detection kit. Nuclei were stained with Hoechst. Images were acquired by laser confocal microscope ZeissLive/DuoScan equipped with oil immersion objectives 63×1.1 and captured in an optical slice of 0.37 μm with appropriate filters. Alternatively, immunoblots were prepared and probed with antibodies to cleaved PARP-1 or cleaved caspase 8.

The subject of data set [8] is PLSCR1. As to the kind of experiment: PLSCR1 phosphorylation after HSV-2 (immunoprecipitation/Western). It counts as cell-based, human. To be noted: 10 μM, HaCat, 30 minutes.
Data set [9] deals with phosphatidylserine (PtdS) and Akt. Description: Translocation of PtdS and Akt to the outer leaflet after HSV-2 (confocal, non-permeabilized). The class given is cell-based, human. To be noted: HaCat, HSV-2(G).
Data set [10] has as its system PLSCR1. It counts as cell-based, monkey. To be noted: Vero, 30 minutes; drugs 10 μM each.
The subject of data set [11] is VSV-S (VSV pseudotyped with SARS-CoV-2 spike protein). The class given is cell-based.
In the next data set the test system is HSV-1 K26GFP. Description: HSV capsid entry, GFP+ cells by confocal imaging. Particulars: HaCat, 4 h post-temperature shift; CIMSS 10 μM, anti-Akt 2 μg/ml, cycloheximide 10 μg/ml.
Data set [12] addresses T7, panel of 393 kinases (Homo sapiens, UniProt P54646).
T7 construct: purchased Reaction Biology Corporation
Description: biochemical. Particulars: control compound.

The target of data set [13] is T8, panel of 393 kinases (Homo sapiens, UniProt Q13131).
T8 construct: purchased Reaction Biology Corporation
As to the kind of experiment: biochemical. Particulars: control compound.

pIC50: −log10 of the molar value. Where a name gives a salt, the structure may show the parent alone.

T8 sequence (Q13131 whole entry): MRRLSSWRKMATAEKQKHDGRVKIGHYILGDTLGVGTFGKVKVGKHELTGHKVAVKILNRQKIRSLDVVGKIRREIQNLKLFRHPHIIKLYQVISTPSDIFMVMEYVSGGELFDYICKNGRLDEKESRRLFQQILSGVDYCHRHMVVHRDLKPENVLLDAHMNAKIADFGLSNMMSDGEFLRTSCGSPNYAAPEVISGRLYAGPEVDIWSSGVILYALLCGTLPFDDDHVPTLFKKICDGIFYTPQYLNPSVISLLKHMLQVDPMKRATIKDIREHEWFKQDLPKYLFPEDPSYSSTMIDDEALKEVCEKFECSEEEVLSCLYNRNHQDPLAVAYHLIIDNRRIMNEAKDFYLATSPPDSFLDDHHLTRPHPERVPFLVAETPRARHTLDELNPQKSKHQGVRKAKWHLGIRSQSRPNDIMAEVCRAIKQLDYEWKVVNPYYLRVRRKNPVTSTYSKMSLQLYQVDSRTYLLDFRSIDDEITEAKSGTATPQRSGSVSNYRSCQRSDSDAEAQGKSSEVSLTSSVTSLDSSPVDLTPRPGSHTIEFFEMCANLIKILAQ
T7 sequence (P54646 whole entry): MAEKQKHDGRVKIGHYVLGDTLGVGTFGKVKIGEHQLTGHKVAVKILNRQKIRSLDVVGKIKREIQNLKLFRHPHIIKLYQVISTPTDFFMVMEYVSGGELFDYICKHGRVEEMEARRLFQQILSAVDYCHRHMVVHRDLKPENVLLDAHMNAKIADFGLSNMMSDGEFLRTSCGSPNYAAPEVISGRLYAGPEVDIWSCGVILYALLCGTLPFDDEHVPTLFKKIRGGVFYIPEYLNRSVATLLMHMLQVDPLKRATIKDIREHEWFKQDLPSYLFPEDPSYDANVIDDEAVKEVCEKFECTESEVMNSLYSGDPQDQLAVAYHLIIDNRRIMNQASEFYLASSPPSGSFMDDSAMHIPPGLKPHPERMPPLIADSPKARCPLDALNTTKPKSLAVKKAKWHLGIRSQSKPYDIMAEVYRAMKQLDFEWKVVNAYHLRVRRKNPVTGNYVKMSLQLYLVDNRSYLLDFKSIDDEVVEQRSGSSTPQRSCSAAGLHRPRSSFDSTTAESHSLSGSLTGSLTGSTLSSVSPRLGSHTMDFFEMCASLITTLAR
T2 sequence (Q15118 29-436): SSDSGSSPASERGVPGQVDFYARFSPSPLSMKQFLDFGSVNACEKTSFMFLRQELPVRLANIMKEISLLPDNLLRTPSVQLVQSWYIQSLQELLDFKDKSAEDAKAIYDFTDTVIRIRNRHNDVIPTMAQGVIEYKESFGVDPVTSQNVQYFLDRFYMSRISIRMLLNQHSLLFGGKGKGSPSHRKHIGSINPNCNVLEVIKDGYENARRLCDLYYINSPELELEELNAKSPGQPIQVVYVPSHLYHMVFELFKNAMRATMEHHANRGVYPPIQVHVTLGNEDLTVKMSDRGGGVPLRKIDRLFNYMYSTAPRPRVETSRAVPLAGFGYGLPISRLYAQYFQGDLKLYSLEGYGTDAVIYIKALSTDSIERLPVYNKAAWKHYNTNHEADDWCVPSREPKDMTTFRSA
T4 sequence (Q15120 whole entry): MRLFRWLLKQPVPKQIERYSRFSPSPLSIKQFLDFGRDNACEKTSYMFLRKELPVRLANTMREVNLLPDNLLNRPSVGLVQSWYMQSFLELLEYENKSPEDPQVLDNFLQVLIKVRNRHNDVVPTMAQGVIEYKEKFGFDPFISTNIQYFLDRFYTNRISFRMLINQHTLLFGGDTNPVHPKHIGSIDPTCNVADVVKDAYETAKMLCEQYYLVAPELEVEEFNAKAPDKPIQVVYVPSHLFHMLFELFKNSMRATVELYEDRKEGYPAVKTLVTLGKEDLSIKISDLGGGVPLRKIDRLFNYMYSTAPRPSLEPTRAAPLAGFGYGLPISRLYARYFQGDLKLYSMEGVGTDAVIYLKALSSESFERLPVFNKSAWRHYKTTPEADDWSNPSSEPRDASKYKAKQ
T5 sequence (Q16654 whole entry): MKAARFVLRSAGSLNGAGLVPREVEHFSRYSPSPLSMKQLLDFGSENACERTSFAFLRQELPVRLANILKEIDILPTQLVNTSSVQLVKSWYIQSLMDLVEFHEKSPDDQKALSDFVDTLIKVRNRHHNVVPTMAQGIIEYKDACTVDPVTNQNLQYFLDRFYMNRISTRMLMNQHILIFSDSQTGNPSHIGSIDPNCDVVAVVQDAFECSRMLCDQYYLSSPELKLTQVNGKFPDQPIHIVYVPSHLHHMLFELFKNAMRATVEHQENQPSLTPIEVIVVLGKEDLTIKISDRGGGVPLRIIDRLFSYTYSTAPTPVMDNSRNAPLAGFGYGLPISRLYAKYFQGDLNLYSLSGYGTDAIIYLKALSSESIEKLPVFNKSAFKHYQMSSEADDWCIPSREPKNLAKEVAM
T1 sequence (Q9BQI3 whole entry): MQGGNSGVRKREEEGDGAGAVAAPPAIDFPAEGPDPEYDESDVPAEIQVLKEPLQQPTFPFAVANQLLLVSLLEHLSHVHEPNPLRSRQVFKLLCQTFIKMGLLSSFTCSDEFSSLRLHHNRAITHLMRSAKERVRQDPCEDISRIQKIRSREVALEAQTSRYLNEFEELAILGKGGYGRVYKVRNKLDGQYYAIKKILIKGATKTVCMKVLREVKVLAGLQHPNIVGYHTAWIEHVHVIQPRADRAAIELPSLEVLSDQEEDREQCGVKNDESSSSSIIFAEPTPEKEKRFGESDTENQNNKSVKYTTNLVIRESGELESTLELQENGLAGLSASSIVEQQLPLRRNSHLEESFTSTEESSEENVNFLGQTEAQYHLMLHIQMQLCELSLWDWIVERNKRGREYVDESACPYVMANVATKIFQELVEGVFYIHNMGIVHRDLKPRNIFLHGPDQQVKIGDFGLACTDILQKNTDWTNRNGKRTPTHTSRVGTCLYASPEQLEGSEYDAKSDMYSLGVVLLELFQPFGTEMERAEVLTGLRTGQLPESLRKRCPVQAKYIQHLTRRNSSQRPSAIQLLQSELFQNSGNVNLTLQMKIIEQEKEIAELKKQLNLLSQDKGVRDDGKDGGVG
T6 sequence (Q96QT4 whole entry): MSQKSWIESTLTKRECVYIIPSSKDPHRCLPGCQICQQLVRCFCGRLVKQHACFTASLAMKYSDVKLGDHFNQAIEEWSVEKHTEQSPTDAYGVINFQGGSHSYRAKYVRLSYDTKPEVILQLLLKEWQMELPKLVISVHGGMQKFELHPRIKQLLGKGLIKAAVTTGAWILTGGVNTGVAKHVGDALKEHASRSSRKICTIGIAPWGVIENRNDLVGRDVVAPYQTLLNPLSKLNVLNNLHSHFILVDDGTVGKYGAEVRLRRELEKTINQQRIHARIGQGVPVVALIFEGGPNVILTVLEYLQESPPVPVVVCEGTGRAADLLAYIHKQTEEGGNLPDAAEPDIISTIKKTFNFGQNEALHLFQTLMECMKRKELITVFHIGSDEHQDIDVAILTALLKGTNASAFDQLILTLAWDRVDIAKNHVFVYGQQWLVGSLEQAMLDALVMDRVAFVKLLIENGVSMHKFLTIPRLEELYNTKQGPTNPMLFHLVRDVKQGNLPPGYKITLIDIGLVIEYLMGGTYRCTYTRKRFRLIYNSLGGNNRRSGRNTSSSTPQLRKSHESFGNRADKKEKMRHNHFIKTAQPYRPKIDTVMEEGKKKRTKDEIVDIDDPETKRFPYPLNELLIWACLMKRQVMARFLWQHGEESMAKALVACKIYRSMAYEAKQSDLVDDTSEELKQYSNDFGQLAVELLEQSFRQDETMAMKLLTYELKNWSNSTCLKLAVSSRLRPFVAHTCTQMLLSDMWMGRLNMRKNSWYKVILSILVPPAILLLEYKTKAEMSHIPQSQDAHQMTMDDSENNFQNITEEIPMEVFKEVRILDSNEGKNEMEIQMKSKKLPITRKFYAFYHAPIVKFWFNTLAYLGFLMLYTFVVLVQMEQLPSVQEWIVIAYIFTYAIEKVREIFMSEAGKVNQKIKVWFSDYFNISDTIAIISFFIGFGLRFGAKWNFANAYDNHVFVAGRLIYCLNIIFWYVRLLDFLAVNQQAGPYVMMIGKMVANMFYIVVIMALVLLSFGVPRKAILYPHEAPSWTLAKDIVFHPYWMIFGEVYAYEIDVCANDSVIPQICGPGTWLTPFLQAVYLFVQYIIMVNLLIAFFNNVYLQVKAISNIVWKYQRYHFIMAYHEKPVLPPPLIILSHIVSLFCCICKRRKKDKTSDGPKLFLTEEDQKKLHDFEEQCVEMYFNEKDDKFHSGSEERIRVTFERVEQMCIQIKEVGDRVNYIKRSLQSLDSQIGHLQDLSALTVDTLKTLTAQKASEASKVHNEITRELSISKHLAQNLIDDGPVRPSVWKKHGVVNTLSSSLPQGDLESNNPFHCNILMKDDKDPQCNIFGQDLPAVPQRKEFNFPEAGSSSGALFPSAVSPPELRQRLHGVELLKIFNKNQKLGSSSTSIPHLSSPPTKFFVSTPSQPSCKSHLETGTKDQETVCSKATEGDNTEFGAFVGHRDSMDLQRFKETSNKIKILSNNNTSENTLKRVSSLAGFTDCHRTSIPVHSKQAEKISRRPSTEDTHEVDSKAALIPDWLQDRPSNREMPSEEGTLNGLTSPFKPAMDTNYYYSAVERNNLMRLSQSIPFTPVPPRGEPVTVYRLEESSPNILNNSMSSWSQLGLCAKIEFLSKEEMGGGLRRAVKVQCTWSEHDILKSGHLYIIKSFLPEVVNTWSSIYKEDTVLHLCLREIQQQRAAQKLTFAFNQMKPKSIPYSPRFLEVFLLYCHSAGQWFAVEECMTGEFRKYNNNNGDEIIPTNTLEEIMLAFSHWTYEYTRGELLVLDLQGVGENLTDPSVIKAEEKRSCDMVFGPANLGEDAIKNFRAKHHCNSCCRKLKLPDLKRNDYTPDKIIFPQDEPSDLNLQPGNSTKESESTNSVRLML

As for `C[C@H]1O[C@@H](O[C@H]2[C@@H](O)C[C@H](O[C@H]3[C@@H](O)C[C@H](O[C@H]4CC[C@@]5(C)[C@H](CC[C@@H]6[C@@H]5C[C@@H](O)[C@]5(C)[C@@H](C7=CC(=O)OC7)CC[C@]65O)C4)O[C@@H]3C)O[C@@H]2C)C[C@H](O)[C@@H]1O` [Digoxin], the “Recover %, MDCK Transport” value with MDCK-MDR1 cells came to 96%.

On to `Cn1cc(-c2ccc3c(c2)CCN3C(=O)Cc2cccc(C(F)(F)F)c2)c2c(N)ncnc21` [GSK-2606414], for which the negative logarithm of the IC50 (pIC50) against panel of 393 kinases [1] is 7.02.

As to `O=C1Nc2ccc(I)cc2/C1=C/c1cc(Br)c(O)c(Br)c1` [GW5074], the half-maximal inhibitory concentration (IC50) against panel of 393 kinases [2] was 8630 nM; at panel of 393 kinases [3] it was 5050 nM; against panel of 393 kinases [4], 2570 nM; on panel of 393 kinases [5] it was 1890 nM.

`CCCCCCCCCCCCCCCCn1cc[n+](Cc2ccccc2)c1C` [NH125] had an IC50 on panel of 393 kinases [6] of 23400 nM.

In the case of `CC(C)NCC(O)COc1cccc2ccccc12` (stereo not drawn) [Propranolol], in data set [7] (100 μM), the “Recover %, PAMPA” value came to 85%. For the same molecule, in [7] (100 μM in PBS pH 7.4, 5 hours, room temperature), the “Papp, PAMPA” value is 8.991 ×10⁻⁶ cm/s. Moreover, in the data set with MDCK-MDR1 cells, the “Recover %, MDCK Transport” value was found to be 93%.

With `CN[C@@H]1C[C@H]2O[C@@](C)([C@@H]1OC)n1c3ccccc3c3c4c(c5c6ccccc6n2c5c31)C(=O)NC4` [Staurosporine, (9S,10R,11R,13R)-2,3,10,11,12,13-hexahydro-10-methoxy-9-methyl-11-(methylamino)-9,13-epoxy-1H,9H-diindolo[1,2,3-gh:3′,2′,1′-lm]pyrrolo[3,4-j][1,7]benzodiazonin-1-one, reference compound], the cytotoxicity entry with HaCat cells (confluent HaCat, 72 and 120 hours of exposure) is given as “completely cytotoxic”; with HaCat cells (fully confluent HaCat cells, up to 120 h), “cytotoxic within 24 h”. In addition, the “phosphorylation of PLSCR1 after HSV-2” value with PLSCR1 [8] is “inhibited”. Further, the “translocation of PtdS and Akt to the outer leaflet of the plasma membrane” value in data set [9] (10 μM) is given as “inhibited”. For the same molecule, the “phosphorylation of PLSCR1 after VSV-S” value in the data set on PLSCR1 [10] is listed as “inhibited”.

On to `CN(C)C(=O)COC(=O)Cc1ccc(OC(=O)c2ccc(NC(=N)N)cc2)cc1` [camostat mesylate, reference compound], for which the “VSV-S infection (plaques or viral yields)” value in data set [11] is on record as “inhibited”.

Turning to `C[C@@H]1C[C@@H]([C@H](O)CC2CC(=O)NC(=O)C2)C(=O)[C@@H](C)C1` [cycloheximide, reference compound], in the data set with HSV-1 K26GFP, the “percentage of GFP+ cells” value is “significantly reduced”.

Regarding Apyrase, the “detection of PtdS or PLSCR1 at the outer leaflet” value in [9] (10 U/ml) is reported as “no discernible effect”.

For Ro-31-8220, the IC50 at panel of 393 kinases [12] (kinase AMPK (A2/B1/G3)) was found to be 296 nM; against panel of 393 kinases [12] (kinase AMPK(A2/B1/G1)), 212 nM; on panel of 393 kinases [12] (kinase AMPK(A2/B2/G1)), 97.8 nM; against panel of 393 kinases [12] (kinase AMPK(A2/B2/G2)), 100 nM; at panel of 393 kinases [12] (kinase AMPK(A2/B2/G3)), 186 nM; against panel of 393 kinases [13] (kinase AMPK(A1/B1/G1)) it was 66.8 nM. The IC50 against panel of 393 kinases [13] (kinase AMPK(A1/B1/G2)) was found to be 76.8 nM; at panel of 393 kinases [13] (kinase AMPK(A1/B1/G3)) it was 179 nM; against panel of 393 kinases [13] (kinase AMPK(A1/B2/G1)), 116 nM.
